US6846928B2, “Compositions useful as inhibitors of protein kinases” (Vertex Pharmaceuticals Incorporated, priority 2002, dated 2005)

melting point [°C] | Structure (SMILES)
219 to 221 | c1ccc(-c2nc(Nc3nccs3)c3ccccc3n2)cc1 [II-34, (2-Phenyl-quinazolin-4-yl)-(thiazol-2-yl)-amine]
215 to 216 | Cc1cnc(Nc2nc(-c3ccccc3)nc3ccccc23)s1 [II-35, (5-Methyl-thiazol-2-yl)-(2-phenyl-quinazolin-4-yl)-amine]
161 to 162 | c1ccc(-c2nc(Nc3ncc(C4CC4)s3)c3ccccc3n2)cc1 [II-36, (5-Cyclopropyl-thiazol-2-yl)-(2-phenyl-quinazolin-4-yl)-amine]
